From article PMC8154581, “Discovery of Novel Thiophene-arylamide Derivatives as DprE1 Inhibitors with Potent Antimycobacterial Activities” (Journal of Medicinal Chemistry, 2021)
≈ marks a conversion by molar mass, not a printed value. Where two headings read alike, the source gives them in different places.

How the values were obtained:
[1] = test system: M. tuberculosis H37Rv; assay: MIC against replicating M. tuberculosis H37Rv, microplate Alamar blue assay (MABA); assay type: cell-based; conditions: Mycobacterium tuberculosis, H37RV
[2] = test system: M. tuberculosis; set-up: method as in PMID 19299584, PMID 24500695; conditions: antimycobacterial activity; cited from earlier work
[3] = test system: Vero cells; assay: Cytotoxicity assay in Vero cells (MTT); assay type: cell-based; conditions: Chlorocebus sabaeus, Vero, 48 h, read-out: IC50 (Vero)
[4] = molecular target: Mt-DprE1 (Mycobacterium tuberculosis, UniProt P9WJF1); assay type: biochemical, M. tuberculosis
[5] = in vitro; conditions: male, mouse, hepatocytes
[6] = in vitro; conditions: human, hepatocytes
[7] = in vitro; conditions: human
[8] = molecular target: hERG K+ channel (Homo sapiens, UniProt Q12809); assay: Inhibition of the hERG K+ channel, electrophysiology
Sequence of hERG K+ channel (Q12809 whole entry): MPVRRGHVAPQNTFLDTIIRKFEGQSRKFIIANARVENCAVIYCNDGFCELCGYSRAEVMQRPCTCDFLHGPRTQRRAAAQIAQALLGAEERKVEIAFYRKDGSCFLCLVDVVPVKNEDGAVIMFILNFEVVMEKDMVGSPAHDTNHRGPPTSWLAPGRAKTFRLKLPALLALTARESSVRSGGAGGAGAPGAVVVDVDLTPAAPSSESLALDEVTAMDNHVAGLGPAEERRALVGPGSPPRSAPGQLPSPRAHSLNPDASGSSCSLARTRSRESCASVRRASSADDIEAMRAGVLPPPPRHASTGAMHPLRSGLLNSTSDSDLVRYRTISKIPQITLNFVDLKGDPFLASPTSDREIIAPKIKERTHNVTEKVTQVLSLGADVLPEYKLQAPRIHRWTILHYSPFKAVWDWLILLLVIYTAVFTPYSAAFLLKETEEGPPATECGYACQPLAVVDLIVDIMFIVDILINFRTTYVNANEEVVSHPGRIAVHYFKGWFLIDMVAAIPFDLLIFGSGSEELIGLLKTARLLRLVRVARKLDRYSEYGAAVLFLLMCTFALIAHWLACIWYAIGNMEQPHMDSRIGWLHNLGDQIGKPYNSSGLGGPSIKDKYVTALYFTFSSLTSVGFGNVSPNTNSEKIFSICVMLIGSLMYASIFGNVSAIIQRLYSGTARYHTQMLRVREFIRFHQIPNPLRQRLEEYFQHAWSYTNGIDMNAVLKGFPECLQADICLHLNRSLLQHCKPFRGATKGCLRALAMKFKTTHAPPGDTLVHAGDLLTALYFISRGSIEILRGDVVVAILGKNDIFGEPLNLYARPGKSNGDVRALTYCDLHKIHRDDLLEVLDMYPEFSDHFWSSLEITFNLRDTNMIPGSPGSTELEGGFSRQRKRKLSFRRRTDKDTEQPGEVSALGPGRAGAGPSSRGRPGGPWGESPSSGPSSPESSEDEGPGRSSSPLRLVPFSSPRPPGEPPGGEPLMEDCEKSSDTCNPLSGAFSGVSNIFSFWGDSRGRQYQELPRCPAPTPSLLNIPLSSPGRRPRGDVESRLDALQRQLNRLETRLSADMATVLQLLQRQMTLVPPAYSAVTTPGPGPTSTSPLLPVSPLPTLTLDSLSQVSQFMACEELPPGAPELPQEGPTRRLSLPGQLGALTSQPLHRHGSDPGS

Sequence of Mt-DprE1 (P9WJF1 whole entry, looked up): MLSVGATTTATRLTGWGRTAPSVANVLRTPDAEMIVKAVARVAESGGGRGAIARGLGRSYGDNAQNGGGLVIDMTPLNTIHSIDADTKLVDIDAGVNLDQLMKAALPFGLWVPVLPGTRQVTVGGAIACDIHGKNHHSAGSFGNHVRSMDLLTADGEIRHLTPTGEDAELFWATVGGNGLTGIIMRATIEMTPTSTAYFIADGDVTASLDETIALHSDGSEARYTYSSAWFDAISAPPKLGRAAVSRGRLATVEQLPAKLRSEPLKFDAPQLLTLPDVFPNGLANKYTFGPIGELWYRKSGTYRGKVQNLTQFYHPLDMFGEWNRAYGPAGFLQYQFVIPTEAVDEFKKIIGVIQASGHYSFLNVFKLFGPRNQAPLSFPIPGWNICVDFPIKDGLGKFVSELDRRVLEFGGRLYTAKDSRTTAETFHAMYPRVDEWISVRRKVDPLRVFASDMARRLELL

Question: With `O=c1nc(N2CCN(CC3CCCCC3)CC2)sc2c([N+](=O)[O-])cc(C(F)(F)F)cc12` [PBTZ169] as the compound, how does the MIC ([1]; Table 4, read-out: MIC H37Rv) read?
Answer: 0.0001 µg/mL (≈ 0.000219 µM)

Question: What about the MICs [2] of the same compound?
Answer: < 0.016 µg/mL

Question: With `CCOC(=O)NC(=O)c1ccsc1NC(=O)c1ccc(C(=O)N2CCCCC2)s1` [Compound 24j, Ethyl (2-(5-(Piperidine-1-carbonyl)thiophene-2-carboxamido)thiophene-3-carbonyl)carbamate] as the compound, how does the MIC ([1]; against M. tuberculosis H37Rv, Tables 1-3, read-out: MIC) read?
Answer: 0.14 µg/mL (≈ 0.321 µM)

Question: What about the MIC ([1]; supplementary CSV, same values as Tables 1-3, read-out: Minimal inhibit concentration) of the same compound?
Answer: 0.14 µg/mL (≈ 0.321 µM)

Question: What about the MIC ([1]; Table 4, read-out: MIC H37Rv) of the same compound?
Answer: 0.059 µg/mL (≈ 0.135 µM)

Question: And the IC50 [3]?
Answer: > 64 µg/mL

Question: What about the “IC50 DprE1” value [4] of the same compound?
Answer: 0.3 ± 0.1 µg/mL (≈ 0.689 µM)

Question: What about the melting point of the same compound?
Answer: 175 to 176 °C

Question: What about the half-life at 1 µM [5] of the same compound?
Answer: 19.3 min

Question: What about the remaining at 0.5 h, 1 µM [5] of the same compound?
Answer: 34%

Question: And the half-life at 1 µM [6]?
Answer: 72.5 min

Question: What about the remaining at 0.5 h, 1 µM [6] of the same compound?
Answer: 75.1%

Question: What about the IC50 [7] of the same compound?
Answer: > 64 µg/mL

Question: And the IC50 [8]?
Answer: 28.3 µM
